Consider 22 compounds from US20140045746A1 (Merck Sharp & Dohme Corp., priority 2012, published 2014).

In experiment [1] the target is T1, hGPR40 (Homo sapiens, UniProt O14842). Put plainly: GPR40 FLIPR assay (agonist-induced calcium mobilization).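 Further: calcium mobilization in the cells read as fluorescence of fluo-4 AM loaded cells on FLIPR after compound addition, cells preloaded with dye 100 min at room temperature.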 More on the design: expressed in transfected cells; host or cells: CHO cells stably expressing NFAT BLA (beta-lactamase). Format: cell-based. Particulars: GPR40/CHO NFAT BLA cells. On the technique in general: Calcium flux is commonly read through the fluorescence of an indicator in the cells.
Description: Human and mouse GPR40 stable cell-lines were generated in CHO cells stably expressing NFAT BLA (Beta-lactamase). […] The expression plasmids were transfected using lipofectamine (Life Technologies) following manufacturer's instructions. Stable cell-lines were generated following drug selection.
FLIPR (Fluorimetric Imaging Plate Reader, Molecular Devices) assays were performed to measure agonist-induced calcium mobilization of the stable clones. For the FLIPR assay, one day before assay, GPR40/CHO NFAT BLA cells were seeded into black-wall-clear-bottom 384-well plates (Costar) at 1.4×10e4 cells/20 μL medium/well. The cells were incubated with 20 μl/well of the assay buffer (HBSS, 0.1% BSA, 20 mM HEPES, 2.5 mM probenecid, pH 7.4) containing 8 μM fluo-4, AM, 0.08% pluronic acid at room temperature for 100 minutes. Fluorescence output was measured using FLIPR. Compounds were dissolved in DMSO and diluted to desired concentrations with assay buffer. 13.3 μL/well of compound solution was added.

For experiment [2], the target named is T1, hGPR40. Nature of the experiment: GPR40 Inositol Phosphate Turnover (IP1) Assay. Format: cell-based. To be noted: HEK cells stably expressing human GPR40; 0% serum; read-out: hGPR40 IP1 EC50 (0% serum). Further details: expressed in transfected cells; host or cells: HEK cells stably expressing the aequorin reporter.
Description: A human GPR40 stable cell-line was generated in HEK cells stably expressing the aequorin expressing reporter.
The assay is performed in 96-well format. HEK cells stably expressing human GPR^40 are plated to be 60-80% confluent within 72 h. After 72 h, the plates are aspirated and the cells washed with inositol-free DMEM (ICN). The wash media is replaced with 150 μL of 3H-inositol labeling media (inositol-free media containing 0.4% human albumin or 0.4% mouse albumin, 1× pen/strep antibiotics, glutamine, 25 mM HEPES to which is added 3H-myo-inositol NEN #NET114A 1mCi/mL, 25 Ci/mmol diluted 1:150 in loading media with a final specific radioactivity of 1 μCi/150 μL). Alternatively, the human and mouse albumin can be added after the overnight labeling step before the addition of LiCl.
The assay is typically run the next day after 18 h labeling. On the day of the assay, 5 μL, of 300 mM LiCl is added to all wells and incubated at 37 degrees for 20 min. 0.75 μL of 200× compounds are added and incubated with the cells for 60 min at 37 degrees. The media is then aspirated off and the assay terminated with the addition of 60 nI, 10 mM formic acid. The cells are lysed for 60 min at room temperature. 15-30 nI, of lysate is mixed with 70 mL/1 mg YSi SPA beads (Amersham) in clear bottom Isoplates. The plates are shaken for 2 h at room temperature. Beads are allowed to settle and the plates are counted in the Wallac Microbeta.

T1 sequence (O14842 whole entry): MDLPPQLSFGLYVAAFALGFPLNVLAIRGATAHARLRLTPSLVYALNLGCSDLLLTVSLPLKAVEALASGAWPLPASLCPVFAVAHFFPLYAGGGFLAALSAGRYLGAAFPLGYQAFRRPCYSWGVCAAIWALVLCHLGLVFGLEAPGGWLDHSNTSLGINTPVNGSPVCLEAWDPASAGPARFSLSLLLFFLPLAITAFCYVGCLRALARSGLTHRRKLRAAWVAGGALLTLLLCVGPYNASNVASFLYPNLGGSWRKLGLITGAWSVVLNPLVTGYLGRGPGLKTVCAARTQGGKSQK

Consider `Cc1nc(OCCCS(C)(=O)=O)nc(C)c1-c1ccc(F)c(COc2cc3c(cn2)C2C(C3)C2C(=O)O)c1` (centres unmarked) [Compound 23-13, 3-((5-(4,6-dimethyl-2-(3-(methylsulfonyl)propoxy)pyrimidin-5-yl)-2-fluorobenzyl)-oxy)-5,5a,6,6a-tetrahydrocyclopropa [4,5]cyclopenta[1,2-c]pyridine-6-carboxylic acid], for which the concentration for a half-maximal effect (EC50) at hGPR40 [1] is 77 nM; at hGPR40 [2] it was 110 nM.
The like results for `Cc1nc(OCCCS(C)(=O)=O)sc1-c1ccc(F)c(COc2cc3c(cn2)C2C(C3)C2C(=O)O)c1` (centres unmarked) [Compound 23-14, 3-((2-fluoro-5-(4-methyl-2-(3-(methylsulfonyl)-propoxy)thiazol-5-yl)-benzyl)oxy)-5,5a,6,6a-tetrahydrocyclopropa [4,5]cyclopenta[1,2-c] pyridine-6-carboxylic acid] were, in that order, 18 nM and 34 nM.
In the case of `Cc1nc(OCCCN2CCCC2=O)ccc1-c1ccc(F)c(COc2cc3c(cn2)C2C(C3)C2C(=O)O)c1` (centres unmarked) [Compound 23-15, 3-((2-fluoro-5-(2-methyl-6-(3-(2-oxopyrrolidin-1-yl)propoxy)pyridin-3-yl)benzyl)oxy)-5,5a,6,6a-tetahydrocyclopropa[4,5] cyclopenta[1,2-c]pyridine-6-carboxylic acid], the concentration giving a half-maximal response (EC50) at hGPR40 [1] is 38 nM; at hGPR40 [2], 27 nM.
The like results for `CS(=O)(=O)CCCOc1cc(OC(F)F)c(-c2ccc(F)c(COc3cc4c(cn3)[C@H]3[C@@H](C4)[C@@H]3C(=O)O)c2)cn1` [Compound 23-17, (5aR,6S,6aS)-3-((5-(4-(difluoro-methoxy)-6-(3-(methylsulfonyl)propoxy)pyridin-3-yl)-2-fluorobenzyl)-oxy)-5,5a,6,6a-tetrahydrocyclopropa [4,5]cyclopenta[1,2-c] pyridine-6-carboxylic acid] were, in that order, 58 nM and 82 nM.
`Cc1nc(OCC(F)(F)C(F)(F)F)ccc1-c1ccc(F)c(COc2cc3c(cn2)C2C(C3)C2C(=O)O)c1` (centres unmarked) [Compound 23-18, 3-((2-fluoro-5-(2-methyl-6-(2,2,3,3,3-pentafluoro-propoxy)pyridin-3-yl)-benzyl)oxy)-5,5a,6,6a-tetra-hydrocyclopropa[4,5] cyclopenta[1,2-c]pyridine-6-carboxylic acid]: the EC50 at hGPR40 [1] amounted to 10 nM; at hGPR40 [2], 56 nM.
As for `Cc1nc(OCCCS(C)(=O)=O)ccc1-c1ccc(F)c(CNc2cc3c(cn2)C2C(C3)C2C(=O)O)c1` (centres unmarked) [Compound 24-4, 3-((2-fluoro-5-(2-methyl-6-(3-(methylsulfonyl)propoxy)pyridin-3-yl)benzyl)amino)-5,5a,6,6a-tetrahydrocyclopropa[4,5]cyclopenta[1,2-c]pyridine-6-carboxylic acid], the EC50 on hGPR40 [1] came out at 96 nM; at hGPR40 [2], 90 nM.
`O=C(O)[C@H]1[C@@H]2Cc3cc(OCc4cc(Oc5ccccc5C(F)(F)F)ccc4F)ncc3[C@@H]21` [Compound 25-2, 4-[2-Fluoro-5-(2-trifluoromethyl-phenoxy)-benzyloxy]-1,1a,6,6a-tetrahydro-3-aza-cyclopropa[a]indene-1-carboxylic acid]: the EC50 was 35 nM at hGPR40 [1] and 56 nM on hGPR40 [2].
Consider `O=C(O)[C@H]1[C@@H]2Cc3cc(OCc4cc(Oc5ccccc5)ccc4F)ncc3[C@@H]21` [Compound 25-3, 4-(2-Fluoro-5-phenoxy-benzyloxy)-1,1a, 6,6a-tetrahydro-3-aza-cyclopropa [a]indene-1-carboxylic acid], for which the results for the concentration for a half-maximal effect (EC50) at hGPR40 [1] and at hGPR40 [2] were 34 nM and 85 nM, respectively.
The matching figures for `O=C(O)[C@H]1[C@@H]2Cc3cc(OCc4cc(Oc5ccc(C(F)(F)F)cc5Cl)ccc4F)ncc3[C@@H]21` [Compound 25-4, 4-[5-(2-Chloro-4-trifluoromethyl-phenoxy)-2-fluoro-benzyloxy]-1,1a, 6,6a-tetrahydro-3-aza-cyclopropa [a]indene-1-carboxylic acid]: 49 nM and 300 nM.
`Cc1cccc(C)c1-c1ccc(F)c(COc2cc3c(cn2)C2C(C3)C2C(=O)O)n1` (centres unmarked) [Compound 26-7, 3-((6-(2,6-dimethylphenyl)-3-fluoropyridin-2-yl)methoxy)-5,5a,6,6a-tetrahydrocyclopropa[4,5]cyclopenta[1,2-c]pyridine-6-carboxylic acid]: the EC50 on hGPR40 [1] came to 42 nM; at hGPR40 [2], 120 nM.
Take `Cc1cccc(C)c1-c1cc(COc2cc3c(cn2)C2C(C3)C2C(=O)O)c(F)cn1` (centres unmarked) [Compound 26-8, 3-((2-(2,6-dimethyl-phenyl)-5-fluoropyridin-4-yl)methoxy)-5,5a,6,6a-tetrahydrocyclopropa [4,5]cyclopenta[1,2-c]pyridine-6-carboxylic acid]: the EC50 at hGPR40 [1] came out at 28 nM; on hGPR40 [2], 100 nM.
The like results for `CS(=O)(=O)CCCOc1ccc(-c2ccc(F)c(COc3cc4c(cn3)[C@H]3[C@@H](C4)[C@@H]3C(=O)O)n2)c(C(F)(F)F)c1` [Compound 26-9, (5aR,6S,6aS)-3-((3-fluoro-6-(4-(3-(methyl-sulfonyl)-propoxy)-2-(trifluoromethyl)-phenyl)pyridin-2-yl)methoxy)-5,5a,6,6a-tetrahydrocyclo-propa[4,5]cyclopenta [1,2-c]pyridine-6-carboxylic acid] were, in that order, 70 nM and 53 nM.
The matching figures for `Cc1nc(N2CCN(S(C)(=O)=O)CC2)ccc1-c1ccc(F)c(COc2cc3c(cn2)[C@H]2[C@@H](C3)[C@@H]2C(=O)O)n1` [Compound 26-10, (5aR,6S,6aS)-3-((5-fluoro-2′-methyl-6′-(4-(methylsulfonyl)-piperazin-1-yl)-[2,3′-bipyridin]-6-yl)methoxy)-5,5a,6,6a-tetrahydrocyclo-propa[4,5]cyclopenta [1,2-c]pyridine-6-carboxylic acid]: 90 nM and 300 nM.
Regarding `Cc1cccc(C)c1-c1cccc(COc2cc3c(cn2)C2[C@@H](C3)[C@@H]2C(=O)O)c1C` (some centres unmarked) [Compound 27-5, 4-(2,2′,6′-Trimethyl-biphenyl-3-ylmethoxy)-1,1a,6,6a-tetrahydro-3-aza-cyclopropa[a]indene-1-carboxylic acid], the half-maximal effective concentration (EC50) at hGPR40 [1] was found to be 8.1 nM; on hGPR40 [2], 6.7 nM.
The like results for `Cc1c(COc2cc3c(cn2)C2C(C3)C2C(=O)O)cccc1-c1ccccc1C(F)(F)F` (centres unmarked) [Compound 27-6, 3-((2-methyl-2′-(trifluoro-methyl)-[1,1′-biphenyl]-3-yl)methoxy)-5,5a,6,6a-tetrahydrocyclopropa[4,5]-cyclopenta[1,2-c]pyridine-6-carboxylic acid] were, in that order, 30 nM and 85 nM.
With `Cc1cc(OCCCC(C)(C)C#N)cc(C)c1-c1cccc(COc2cc3c(cn2)C2[C@@H](C3)[C@@H]2C(=O)O)c1` (stereo partly drawn) [Compound 28-6, (5aR,6S,6aR)-3-((4′-((4-cyano-4-methylpentyl)oxy)-2′,6′-dimethyl-[1,1′-biphenyl]-3-yl)methoxy)-5,5a,6,6a-tetrahdrocyclopropa[4,5]cyclopenta[1,2-c]pyridine-6-carboxylic acid], the EC50 on hGPR40 [1] stood at 24 nM; on hGPR40 [2] it was 66 nM.
For the compound `Cc1cc(O[C@H]2C[C@@](C)(C#N)C2)cc(C)c1-c1cccc(COc2cc3c(cn2)C2[C@@H](C3)[C@@H]2C(=O)O)c1` (stereo partly drawn) [Compound 29-7, (5aR,6S,6aR)-3-((4′-((1s,3s)-3-cyano-3-methylcyclobutoxy)-2′,6′-dimethyl-[1,1′-biphenyl]-3-yl)methoxy)-5,5a,6,6a-tetrahydrocyclopropa[4,5]cyclopenta[1,2-c]pyridine-6-carboxylic acid], the EC50 at hGPR40 [1] was determined as 54 nM; on hGPR40 [2] it was 21 nM.
As for `Cc1cc(OCCCS(C)(=O)=O)cc(C)c1-c1ccc(F)c(C(C)Oc2cc3c(cn2)[C@H]2[C@@H](C3)[C@@H]2C(=O)O)c1` (stereo partly drawn) [Compound 30-5, (5aR,6S,6aS)-3-(1-(4-fluoro-2′,6′-dimethyl-4′-(3-(methylsulfonyl)propoxy)-[1,1′-biphenyl]-3-yl)ethoxy)-5,5a,6,6a-tetrahydrocyclopropa[4,5]cyclopenta[1,2-c]pyridine-6-carboxylic acid], the 50% effective concentration (EC50) at hGPR40 [1] worked out at 45 nM; on hGPR40 [2] it was 300 nM.
For `Cc1nc(N2CC(CS(C)(=O)=O)C2)ccc1-c1ccc(F)c(COc2cc3c(cn2)[C@H]2[C@@H](C3)[C@@H]2C(=O)O)c1` [Compound 31-8], the half-maximal effective concentration (EC50) came to 51 nM at hGPR40 [1] and 28 nM at hGPR40 [2].
The like results for `Cc1nc(N2CCC(CS(C)(=O)=O)C2)ccc1-c1ccc(F)c(COc2cc3c(cn2)C2C(C3)C2C(=O)O)c1` (centres unmarked) [Compound 31-9, 3-((2-fluoro-5-(2-methyl-6-(3-((methylsulfonyl)-methyl)pyrrolidin-1-yl)pyridin-3-yl)benzyl)oxy)-5,5a,6,6a-tetrahydrocyclopropa[4,5]cyclopenta[1,2-c]pyridine-6-carboxylic acid] were, in that order, 76 nM and 69 nM.
On to `Cc1nc(N2CCOCC2)nc(C)c1-c1ccc(F)c(COc2cc3c(cn2)C2C(C3)C2C(=O)O)c1` (centres unmarked) [Compound 31-10, 3-((5-(4,6-dimethyl-2-morpholinopyrimidin-5-yl)-2-fluorobenzyl)oxy)-5,5a,6,6a-tetrahydrocyclopropa[4,5]cyclopenta[1,2-c]pyridine-6-carboxylic acid], for which the values for the concentration for a half-maximal effect (EC50) at hGPR40 [1] and at hGPR40 [2] were 86 nM and 45 nM, respectively.
Turning to `Cc1nc(N2CCC3(C=Cc4ccccc43)CC2)nc(C)c1-c1ccc(F)c(COc2cc3c(cn2)C2C(C3)C2C(=O)O)c1` (centres unmarked) [Compound 31-11, 3-((5-(4,6-dimethyl-2-(spiro[indene-1,4′-piperidin]-1′-yl)pyrimidin-5-yl)-2-fluorobenzyl)oxy)-5,5a,6,6a-tetrahydrocyclopropa[4,5]cyclopenta[1,2-c]pyridine-6-carboxylic acid], the results for the concentration giving a half-maximal response (EC50) at hGPR40 [1] and at hGPR40 [2] were 45 nM and 180 nM, respectively.

In general, EC50 refers to the concentration that produces a half-maximal response.
